Key:
BACE2 = target: T1, BACE2 (Rattus norvegicus, UniProt Q6IE75); experiment: Assay for BACE inhibition by measuring cellular TMEM27 cleavage; assay type: cell-based; conditions: INS-TMEM27 cells (INS1e-derived); shed TMEM27 by ELISA; read-out: BACE2 cell act. IC50
T1 construct: endogenous cellular BACE2 in the Ins1e rat cell line; endogenous in cells; host or cells: INS-TMEM27 (INS1e-derived rat cell line with TetOn-inducible full-length hTMEM27)
T1 sequence (Q6IE75 63-514): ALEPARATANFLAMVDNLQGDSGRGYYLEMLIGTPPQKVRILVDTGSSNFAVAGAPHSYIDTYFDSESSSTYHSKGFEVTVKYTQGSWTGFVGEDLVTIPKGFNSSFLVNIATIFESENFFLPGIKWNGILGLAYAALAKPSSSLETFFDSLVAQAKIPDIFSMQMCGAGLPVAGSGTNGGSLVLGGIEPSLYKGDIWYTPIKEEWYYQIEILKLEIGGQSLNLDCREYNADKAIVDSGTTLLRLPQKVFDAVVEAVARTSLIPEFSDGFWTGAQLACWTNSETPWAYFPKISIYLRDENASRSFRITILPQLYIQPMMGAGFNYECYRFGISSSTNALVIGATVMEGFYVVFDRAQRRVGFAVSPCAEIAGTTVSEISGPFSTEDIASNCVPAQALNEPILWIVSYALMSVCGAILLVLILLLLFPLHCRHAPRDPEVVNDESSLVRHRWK
Method in brief: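 Ins1e-derived INS-TMEM27 rat cells with doxycycline-inducible full-length human TMEM27; inhibitor added 2 h before doxycycline (500 ng/ml final), then 46 h at 37 °C. Shed TMEM27 in supernatant quantified by sandwich ELISA with anti-human-TMEM27 antibodies; EC50 from curve fit across inhibitor concentrations.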

hERG channel = target: T2, hERG channel (Homo sapiens, UniProt Q12809); experiment: PatchXpress hERG inhibition assay; assay type: cell-based; conditions: % inhibition @ 1 μM
T2 construct: expressed in transfected cells; host or cells: CHO
From the text: PatchXpress hERG Inhibition Assay
For patch clamp electrophysiology, the external buffer contained (in mM): 150 NaCl, 10 Hepes, 4 KCl, 1.2 CaCl2, 1 MgCl2, pH 7.4 adjusted with […] and the internal recording solution contained (in mM): 140 KCl, 6 EGTA, 5 Hepes, MgCl2, 5 ATP-Na2, pH 7.2 adjusted with KOH. Once the cell was loaded in the recording chamber and formed a giga ohm seal with the planar glass electrodes (Sealchip™), a whole-cell configuration was achieved by rupturing the cell membrane. The membrane potential was then clamped at −80 mV and the hERG channel activated by a 1-second depolarizing pulse delivered at 0.1 Hz, the hERG current was measured during the 500 ms-repolarizing pulse to −40 mV. […] The inhibition of hERG current at each concentration was normalized to that recorded in the vehicle control, and fitted with Hill equation to calculate IC20 and/or IC50.

CYP2C9 = target: T3, CYP2C9 (Homo sapiens, UniProt P11712); experiment: CYP inhibition assay, CYP2C9; assay type: in vitro ADME; conditions: human liver microsomes, diclofenac; read-out: CYP IC50 2C9
T3 construct: 0.2 mg/ml pooled human liver microsomes; from tissue; host or cells: pooled human liver microsomes
Description: Inhibition of cytochromes P450 (CYPs) 2C9, 2D6 and 3A4 was assessed using human liver microsomes and CYP-selective substrate metabolism reactions. 50 μl incubations were made up containing (finally) 0.2 mg/ml pooled human liver microsomes, 5 μM substrate (diclofenac for CYP2C9 [4′ hydroxylase], dextromethorphan for CYP2D6 [O-demethylase] or midazolam for CYP3A4 [1′ hydroxylase]), 0.25 μL DMSO containing test inhibitor and NADPH regenerating system. […] Incubations were prewarmed to 37° C. for 10 minutes before initiation by addition of NADPH regenerating system. Incubations were quenched after 5 minutes (20 minutes for dextromethorphan) by addition of 50 μl cold acetonitrile containing 20 ng/ml 4-OH-diclofenac-13C6, 20 ng/mL dextrorphan-D3 and 20 ng/mL 1-OH-midazolam-D4. Quenched incubates were stored at −20° C. for at least 1 hour before centrifugation (20,000×g, 20 minutes). Supernatants were removed and diluted 1:1 with water prior to analysis using a RapidFire sample injector system and API4000 mass spectrometer. Peak areas for substrate, metabolite and stable-labelled metabolite standard were determined using MS/MS. The peak area ratios between the metabolite generated by the enzymatic reaction and the internal standard were used in subsequent calculations. The percentage of (DMSO) control activity was calculated for each incubate and IC50 values estimated by non-linear regression. Sulfaphenazole, quinidine or ketoconazole were tested in each CYP2C9, CYP2D6 or CYP3A4 inhibition experiment, respectively, to ensure assay sensitivity and reproducibility.

P-gP = P-gP (Homo sapiens, UniProt P08183); experiment: P-gP human efflux ratio; assay type: in vitro ADME; parameters: key: A = not or weak substrate
P-gP, sequence (P08183 whole entry): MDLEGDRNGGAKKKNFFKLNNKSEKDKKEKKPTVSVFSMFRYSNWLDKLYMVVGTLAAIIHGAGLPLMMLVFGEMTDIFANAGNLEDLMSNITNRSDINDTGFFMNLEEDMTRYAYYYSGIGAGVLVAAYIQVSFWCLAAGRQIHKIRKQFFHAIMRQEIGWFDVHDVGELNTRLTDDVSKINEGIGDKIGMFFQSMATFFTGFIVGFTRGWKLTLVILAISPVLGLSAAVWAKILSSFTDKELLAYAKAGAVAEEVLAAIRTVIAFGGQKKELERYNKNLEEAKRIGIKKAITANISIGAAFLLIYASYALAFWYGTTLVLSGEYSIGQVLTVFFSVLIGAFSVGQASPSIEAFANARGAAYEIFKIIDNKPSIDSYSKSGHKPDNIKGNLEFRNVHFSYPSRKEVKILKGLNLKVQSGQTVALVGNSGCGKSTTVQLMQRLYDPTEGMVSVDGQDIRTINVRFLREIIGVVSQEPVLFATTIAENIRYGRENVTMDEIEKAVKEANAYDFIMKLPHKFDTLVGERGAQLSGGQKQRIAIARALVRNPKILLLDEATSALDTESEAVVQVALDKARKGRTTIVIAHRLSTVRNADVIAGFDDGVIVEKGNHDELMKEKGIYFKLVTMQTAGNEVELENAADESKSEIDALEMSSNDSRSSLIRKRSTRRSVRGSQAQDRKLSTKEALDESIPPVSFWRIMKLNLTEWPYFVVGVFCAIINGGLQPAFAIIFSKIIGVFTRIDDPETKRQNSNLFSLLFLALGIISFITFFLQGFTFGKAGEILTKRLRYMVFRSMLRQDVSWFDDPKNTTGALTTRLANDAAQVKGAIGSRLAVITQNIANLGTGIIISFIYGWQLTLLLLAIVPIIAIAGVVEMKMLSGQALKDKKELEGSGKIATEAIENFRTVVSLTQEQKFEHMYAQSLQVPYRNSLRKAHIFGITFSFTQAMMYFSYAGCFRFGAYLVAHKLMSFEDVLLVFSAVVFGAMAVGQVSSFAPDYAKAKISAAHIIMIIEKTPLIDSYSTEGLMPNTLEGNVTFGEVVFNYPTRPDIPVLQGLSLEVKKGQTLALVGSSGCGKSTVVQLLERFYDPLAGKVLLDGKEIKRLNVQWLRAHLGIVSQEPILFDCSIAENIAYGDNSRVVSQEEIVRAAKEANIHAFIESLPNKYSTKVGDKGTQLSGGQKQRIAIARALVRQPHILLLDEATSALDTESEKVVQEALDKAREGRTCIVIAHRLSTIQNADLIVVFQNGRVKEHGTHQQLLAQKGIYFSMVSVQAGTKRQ

T2 sequence (Q12809 whole entry): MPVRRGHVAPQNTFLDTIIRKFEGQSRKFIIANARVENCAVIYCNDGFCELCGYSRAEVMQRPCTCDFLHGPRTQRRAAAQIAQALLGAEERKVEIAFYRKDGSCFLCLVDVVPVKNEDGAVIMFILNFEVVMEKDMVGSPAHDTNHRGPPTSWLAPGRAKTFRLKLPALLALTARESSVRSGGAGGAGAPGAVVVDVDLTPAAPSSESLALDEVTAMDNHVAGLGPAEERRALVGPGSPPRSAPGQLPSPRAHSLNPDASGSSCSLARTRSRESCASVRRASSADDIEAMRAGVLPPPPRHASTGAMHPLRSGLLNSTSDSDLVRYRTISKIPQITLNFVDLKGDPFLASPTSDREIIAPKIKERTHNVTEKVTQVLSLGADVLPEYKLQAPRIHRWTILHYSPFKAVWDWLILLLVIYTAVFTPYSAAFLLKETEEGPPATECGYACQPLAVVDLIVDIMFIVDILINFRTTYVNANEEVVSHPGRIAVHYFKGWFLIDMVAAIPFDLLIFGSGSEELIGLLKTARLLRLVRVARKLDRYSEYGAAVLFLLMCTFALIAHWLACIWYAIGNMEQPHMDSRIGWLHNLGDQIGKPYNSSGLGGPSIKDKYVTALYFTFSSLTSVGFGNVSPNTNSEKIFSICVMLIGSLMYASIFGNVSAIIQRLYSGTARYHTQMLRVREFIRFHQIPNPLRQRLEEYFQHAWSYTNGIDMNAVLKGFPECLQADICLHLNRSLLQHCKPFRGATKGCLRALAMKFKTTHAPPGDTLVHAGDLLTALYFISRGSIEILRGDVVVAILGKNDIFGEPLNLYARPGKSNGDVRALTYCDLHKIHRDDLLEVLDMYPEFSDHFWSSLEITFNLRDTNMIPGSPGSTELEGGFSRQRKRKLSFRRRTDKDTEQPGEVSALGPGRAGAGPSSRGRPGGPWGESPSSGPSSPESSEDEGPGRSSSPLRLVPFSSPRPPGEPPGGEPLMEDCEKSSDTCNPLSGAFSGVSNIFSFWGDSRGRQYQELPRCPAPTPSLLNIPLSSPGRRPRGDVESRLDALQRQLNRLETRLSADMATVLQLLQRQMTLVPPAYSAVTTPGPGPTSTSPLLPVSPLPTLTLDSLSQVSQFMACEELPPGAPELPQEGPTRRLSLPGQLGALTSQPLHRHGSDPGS
T3 sequence (P11712 whole entry): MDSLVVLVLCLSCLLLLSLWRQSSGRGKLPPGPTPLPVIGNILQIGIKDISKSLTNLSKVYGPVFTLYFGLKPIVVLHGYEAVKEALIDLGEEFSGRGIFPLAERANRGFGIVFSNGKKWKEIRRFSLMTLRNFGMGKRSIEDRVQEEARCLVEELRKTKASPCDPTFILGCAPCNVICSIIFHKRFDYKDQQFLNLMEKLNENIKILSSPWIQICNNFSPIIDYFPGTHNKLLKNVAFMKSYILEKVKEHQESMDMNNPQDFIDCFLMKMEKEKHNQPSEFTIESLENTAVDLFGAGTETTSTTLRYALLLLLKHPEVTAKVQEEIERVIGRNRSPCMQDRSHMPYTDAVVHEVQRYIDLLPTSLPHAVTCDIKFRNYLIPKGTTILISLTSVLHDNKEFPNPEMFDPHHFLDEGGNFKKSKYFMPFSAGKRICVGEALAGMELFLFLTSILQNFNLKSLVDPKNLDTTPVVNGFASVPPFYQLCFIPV

| Compound | IC50 (BACE2) [nM] | IC50 (CYP2C9) [nM] | P-gP human, efflux ratio: substrate category (P-gP) | hERG (hERG channel) |
| --- | --- | --- | --- | --- |
| C[C@]1(c2cc(NC(=O)c3ccc(Cl)cn3)ccc2F)N=C(N)OCC1(F)F [Example 1, 5-Chloro-pyridine-2-carboxylic acid [3-((R)-2-amino-5,5-difluoro-4-methyl-5,6-dihydro-4H-[1,3]oxazin-4-yl)-4-fluoro-phenyl]-amide] | 35 | > 10000 |  | A (A = less than 26% inhibition @ 1 μM) |
| C[C@]1(c2cc(NC(=O)c3ncc(C(F)(F)F)cc3Cl)ccc2F)N=C(N)OCC1(F)F [Example 5, 3-Chloro-5-trifluoromethyl-pyridine-2-carboxylic acid [3-((R)-2-amino-5,5-difluoro-4-methyl-5,6-dihydro-4H-[1,3]oxazin-4-yl)-4-fluoro-phenyl]-amide] | 15 |  | A | A (A = less than 26% inhibition @ 1 μM) |
| C[C@]1(c2cc(NC(=O)c3ncc(Cl)cc3Cl)ccc2F)N=C(N)OCC1(F)F [Example 8, 3,5-Dichloro-pyridine-2-carboxylic acid [3-((R)-2-amino-5,5-difluoro-4-methyl-5,6-dihydro-4H-[1,3]oxazin-4-yl)-4-fluoro-phenyl]-amide] | 71 | > 10000 |  | A (A = less than 26% inhibition @ 1 μM) |
| CC1(C)OC(N)=N[C@](C)(c2cc(NC(=O)c3ncc(C(F)(F)F)cc3Cl)ccc2F)C1(F)F [Example 20, 3-Chloro-5-trifluoromethyl-pyridine-2-carboxylic acid [3-((R)-2-amino-5,5-difluoro-4,6,6-trimethyl-5,6-dihydro-4H-[1,3]oxazin-4-yl)-4-fluoro-phenyl]-amide] | 1270 | 1000 to 10000 | A | A (A = less than 26% inhibition @ 1 μM) |

Continued, in another order:

| IC50 (BACE2) [nM] | IC50 (CYP2C9) [nM] | P-gP human, efflux ratio: substrate category (P-gP) | Compound | hERG (hERG channel) |
| --- | --- | --- | --- | --- |
| 210 | > 10000 | A | CC1(C)OC(N)=N[C@](C)(c2cc(NC(=O)c3ccc(C#N)cn3)ccc2F)C1(F)F [Example 21, 5-Cyano-pyridine-2-carboxylic acid [3-((R)-2-amino-5,5-difluoro-4,6,6-trimethyl-5,6-dihydro-4H-[1,3]oxazin-4-yl)-4-fluoro-phenyl]-amide] |  |
| 175 | > 10000 |  | CC1(C)OC(N)=N[C@](C)(c2cc(NC(=O)c3ncc(C#N)cc3Cl)ccc2F)C1(F)F [Example 22, 3-Chloro-5-cyano-pyridine-2-carboxylic acid [3-((R)-2-amino-5,5-difluoro-4,6,6-trimethyl-5,6-dihydro-4H-[1,3]oxazin-4-yl)-4-fluoro-phenyl]-amide] |  |
| 224 | > 10000 |  | C[C@]1(c2cc(NC(=O)c3ncc(C#N)cc3Cl)ccc2F)N=C(N)OCC1(F)F [Example 39, 3-Chloro-5-cyano-pyridine-2-carboxylic acid [3-((R)-2-amino-5,5-difluoro-4-methyl-5,6-dihydro-4H-[1,3]oxazin-4-yl)-4-fluoro-phenyl]-amide] |  |
